Test system: C57BL/6 mice
Assay: Chemotherapy (5-FU) induced dysbiosis model in C57BL/6 mice
Type: in vivo
Details: 5-FU alone
Protocol: Based on previous studies, a model of chemotherapy induced dysbiosis in C57BL/6 mice using 5-Fluorouracil (5-FU) chemotherapy was established. 5-FU accelerated body weight loss (FIG. 16A), reduced microbiome diversity (FIG. 16B), increased gut permeability (FIG. 16C), damaged intestinal villi in the ileum (FIG. 16D), and impaired cognitive function (FIG. 16E). […] It was determined where the PFM has more significant protective effects compared to non-fermented probiotics (same four strains suspended in saline, instead of fermented in milk).

For O=c1[nH]cc(F)c(=O)[nH]1 [5-FU, 5-Fluorouracil], the body weight loss was “accelerated”, the cognitive function was “impaired” and the “intestinal villi in the ileum” value was “damaged”. The microbiome diversity was “reduced”.
